Reference: patent US20050004029A1, “Methods and compositions for treating vascular leak using hepatocyte growth factor” (priority 2001, published 2005)

Columns and labels:
[1] = system: p42/44 ERK; experiment: p42/44 ERK activation by phospho-specific immunoblotting; format: cell-based, human; details: UO126 10 μM, 30 min; HGF 20 ng/ml, 15 min
Description: Endothelial cell monolayers grown to confluence in 12-well plates and challenged with HGF were lysed with 100 μl of 2×SDS sample buffer, and cell lysates were transferred into microcentrifuge tubes and boiled for 5 min. After a brief spin, proteins from 10 μl cell lysates were separated on 12% SDS-PAGE and transferred to nitrocellulose (Schleicher & Schuell, Keene, N.H.) (30V, 18 h). After blocking with PBST (PBS with 0.1% Tween 20) containing 5% non-fat milk for 1 hr, nitrocellulose blots were reacted with primary antibodies diluted in PBST containing 5% BSA for 1 hr, washed with PBST (3×10 min), incubated with peroxidase-conjugated secondary antibodies (goat anti-rabbit IgG, 1:10,000 dilution, Sigma; or goat anti-mouse IgG, 1:10,000 dilution, Bio-Rad Labs, Richmond, Calif.) diluted in PBST with 5% non-fat milk for 1 hr and again washed with PBST (3×10 min). Finally, immunoreactive proteins were detected using ECL. The relative intensities of the protein bands were quantified by scanning densitometry.
The MAP family of kinases (ERK1/2 and p38) are actively involved in agonist-induced endothelial cell actin reorganization and barrier regulation (Verin, A. D. et al. (2000) Am. J. Physiol: Lung Cell Molec. Phys. 279:L360-L370, 2000; Garcia, J. G. N. et al. (2001) J. Clin. Invest. 108:689-711) and have been noted to participate in HGF-mediated cell activation (Liang, C. C. and Chen, H. C. (2001) J. Biol. Chem. 276:21146-21152). These reports were confirmed in human endothelial cell monolayers incubated with HGF (20 ng/ml, for 1, 2, 5, 10, 15, 20, 30, 60, or 120 min) where activation of p42/44 ERK and p38 MAPK by HGF was detected by immunoblotting with antibodies that only recognize the phosphorylated (activated) forms of ERK or p38 MAPK. The activation of ERKs was evident at 5 min, maximal after 10-15 min with a gradual decline thereafter, but remaining sustained above basal levels for more than 2 hrs. […] The onset of HGF-mediated activation of p38 MAPK was similar to ERK, with plateau at 10-15 min. However, the duration of this response was much more truncated than ERK activation, beginning to decline by 20 min and returning to basal value by 1 hr.

[2] = system: Human pulmonary artery endothelial cells; experiment: Transendothelial electrical resistance (TER) of human pulmonary artery endothelial cell monolayers; format: cell-based; details: then HGF 20 ng/ml; for effect on HGF-induced increases in TER, in words: pretreatment LY294002 25 μM, UO126 10 μM, SB203580 20 μM, Ro-31-2880 10 μM
Description: (§1) Bovine pulmonary artery endothelial cells were purchased from the American Type Culture Collection (ATCC®, Rockville, Md.) and utilized at passage 19-24. Cells were maintained in Medium 199 (Life Technologies, Rockville, Md.) supplemented with 20% (v/v) colostrum-free bovine serum (CFBS) (Irvine Scientific, Santa Ana, Calif.), 15 μg/ml endothelial cell growth supplement (Upstate Biotechnology, Lake Placid, N.Y.), 1% antibiotic and antimycotic, and 0.1 mM non-essential amino acids (Life Technologies). Human pulmonary artery endothelial cells were purchased from Clonetics (Walkersville, Md.), cultured in EBM-2 complete medium (Clonetics) and utilized at passage 5-10. Human alveolar epithelial cells (A549) were purchased from ATCC® and cultured in the same medium as the bovine endothelial cells, except that the endothelial cell growth supplement was omitted. All cells were maintained at 37° C. in a humidified atmosphere of 5% CO2 and 95% air. Both endothelial cell types grew to contact-inhibited monolayers with the typical cobblestone morphology (Garcia, J. G. N. et al. (1995) J. Cell. Physiol. 163:510-522; Liu, F. et al. (2001) Am. J. Respir. Cell. Mol. Biol. 24:711-719).
Electrical resistance of EC monolayers was measured using electrical cell impedance sensor system (Applied Biophysics Inc., Troy, N.Y.) as described in Garcia, J. G. N. et al. (2000) J. Appl. Physiol. 89:2333-2343. Cells grown on gold microelectrodes (10^−3 cm^2) in polycarbonate wells act as insulating particles, and the resistance across the monolayers (transendothelial electrical resistance, or TER) is measured in real time. As cells adhere on the microelectrode and intercellular cell contacts are formed or in response to agents which increase junctional integrity, the TER increases (Garcia, J. G. N. et al. (2001) J. Clin. Invest. 108:689-711). In contrast, cell retraction, rounding, or loss of adhesion is reflected by decreases in TER (Garcia, J. G. N. et al. (2000) J. Appl. Physiol. 89:2333-2343). These measurements provide a highly sensitive biophysical assay that indicates the state of cell shape, focal adhesion, and endothelial barrier function (Giaever, I. and Keese, C. R. (1993) Nature 366:591-592; Tiruppathi, C. et al. (1992) Proc. Natl. Acad. Sci. USA 89:7919-7923). All electrical resistance data are presented as normalized values. Briefly, current was applied across the electrodes by a 4000 Hz AC voltage source with an amplitude of 1 V in series with a 1 MΩ resistance to approximate a constant current source (−1 μA). The small gold electrode and the larger counter electrode (1 cm^2) were connected to a phase-sensitive lock-in amplifier (5301A; EG&G Instruments Corp, Princeton, N.J.) with a built in differential preamplifier (5316A; EG&G Instruments Corp.). The in-phase and out-of-phase voltages between the electrodes were monitored in real time with the lock-in amplifier and converted to scalar measurements of transendothelial impedance, of which resistance was the primary focus. Transendothelial electrical resistance was monitored for 30 min to establish a baseline resistance (Ro) which, for human lung endothelium, was typically between 8 to 12×10^3 Ω (wells with R0<7×10^3 Ω or R0 >15×10^3 Ω were rejected). For some experiments, total TER was vectorially resolved into components reflecting resistance to current flow beneath the cell layer (α) and resistance to current flow between adjacent cells (Rb) as described in Garcia et al. (2000) supra utilizing the method of Giaiver and Keese which models the endothelial monolayer mathematically (Giaever, I. and Keese, C. R. (1993) Nature 366:591-592). Thus, changes in α reflect alterations in the net state of cell-matrix adhesion, whereas changes in Rb reflect alterations in the integrity of cell-cell adhesion. TER values from each microelectrode were pooled at discrete time points and plotted versus time as the mean±standard error of the mean (Garcia et al. (2000) supra). […]

[3] = system: Bovine Pulmonary Artery Endothelium; experiment: Transendothelial electrical resistance (TER) across bovine pulmonary artery endothelium; format: cell-based; details: VEGF 100 ng/ml, Sph 1-P 1 μM, HGF 20 ng/ml; for TER response in words: thrombin, 10-60 min; for changes in TER 30 min / changes in TER 60 min / changes in TER 10 min: vs vehicle control, ±SEM, thrombin 100 μM; for changes in TER 10 min: (+) increased, (−) decreased
Description: as §1, with “air.” for “air. Both endothelial cell types grew to contact-inhibited monolayers with the typical cobblestone morphology (Garcia, J. G. N. et al. (1995) J. Cell. Physiol. 163:510-522; Liu, F. et al. (2001) Am. J. Respir. Cell. Mol. Biol. 24:711-719).”
Electrical resistance of EC monolayers was measured using electrical cell impedance sensor system (Applied Biophysics Inc., Troy, N.Y.) as described in Garcia, J. G. N. et al. (2000) J. Appl. Physiol. 89:2333-2343. Cells grown on gold microelectrodes (10^−3 cm^2) in polycarbonate wells act as insulating particles, and the resistance across the monolayers (transendothelial electrical resistance, or TER) is measured in real time. As cells adhere on the microelectrode and intercellular cell contacts are formed or in response to agents which increase junctional integrity, the TER increases (Garcia, J. G. N. et al. (2001) J. Clin. Invest. 108:689-711). In contrast, cell retraction, rounding, or loss of adhesion is reflected by decreases in TER (Garcia, J. G. N. et al. (2000) J. Appl. Physiol. 89:2333-2343). These measurements provide a highly sensitive biophysical assay that indicates the state of cell shape, focal adhesion, and endothelial barrier function (Giaever, I. and Keese, C. R. (1993) Nature 366:591-592; Tiruppathi, C. et al. (1992) Proc. Natl. Acad. Sci. USA 89:7919-7923). All electrical resistance data are presented as normalized values. Briefly, current was applied across the electrodes by a 4000 Hz AC voltage source with an amplitude of 1 V in series with a 1 MΩ resistance to approximate a constant current source (−1 μA). The small gold electrode and the larger counter electrode (1 cm^2) were connected to a phase-sensitive lock-in amplifier (5301A; EG&G Instruments Corp, Princeton, N.J.) with a built in differential preamplifier (5316A; EG&G Instruments Corp.). The in-phase and out-of-phase voltages between the electrodes were monitored in real time with the lock-in amplifier and converted to scalar measurements of transendothelial impedance, of which resistance was the primary focus. […] For some experiments, total TER was vectorially resolved into components reflecting resistance to current flow beneath the cell layer (α) and resistance to current flow between adjacent cells (Rb) as described in Garcia et al. (2000) supra utilizing the method of Giaiver and Keese which models the endothelial monolayer mathematically (Giaever, I. and Keese, C. R. (1993) Nature 366:591-592). Thus, changes in α reflect alterations in the net state of cell-matrix adhesion, whereas changes in Rb reflect alterations in the integrity of cell-cell adhesion. TER values from each microelectrode were pooled at discrete time points and plotted versus time as the mean±standard error of the mean (Garcia et al. (2000) supra).

[4] = system: human endothelial monolayers; experiment: F-actin immunofluorescent microscopy (cortical actin ring); format: cell-based; details: LY294002 25 μM, 1 hr or SB203580 20 μM, 30 min; HGF 20 ng/ml
Description: Endothelial cell monolayers grown on gelatinized cover slips were rinsed with M199 and incubated with agonists in the same medium in a 37° C. incubator (5% CO2). Monolayers were then rinsed with PBS (3×2 min), fixed in 4% paraformaldehyde for 10 min, again rinsed with PBS (3×2 min), and permeabilized with 0.25% Triton X-100 for 5 min. Cells were then washed briefly with PBS (3×2 min), blocked with PBS containing 2% BSA for 30 min and incubated with 1 Unit/mL of Texas Red-X phalloidin (Molecular Probes, Eugene, Oreg.), β-catenin antibody (Transduction Laboratories, Lexington, Ky.), glycogen synthase kinase-3 β (GSK-3β) (Santa Cruz Biotechnology, Inc., Santa Cruz, Calif.), or mono-phosphorylated MLC antisera (see Garcia, J. G. N. et al. (2001) J. Clin. Invest. 108:689-711) for 1 hr. After washing with PBS (3×2 min), cover slips were mounted on slides using SlowFade mounting medium (Molecular Probes). Cells were analyzed using a 60× oil objective on a Nikon Eclipse TE 300 microscope. Images were captured by Sony Digital Photo camera DKC 5000. […]
The effect of HGF on the spatial localization of polymerized actin in human endothelial monolayers was investigated by immunofluorescent microscopy. […] F-actin staining was assessed with Texas red phalloidin and myosin light chain staining evaluated with anti-monophosphorylated myosin light chain polyclonal antibody.

Compound | effect on HGF-induced increases in TER, in words [2] | TER response in words [3] | changes in TER 30 min [3] | changes in TER 60 min [3] | changes in TER 10 min [3] | other results
N#CC(=C(/N)Sc1ccccc1N)/C(C#N)=C(/N)Sc1ccccc1N [UO126, reference compound] | significantly blocked |  |  |  |  | effect on HGF-stimulated ERK activity [1]: completely abolished
VEGF |  | early increase in TER, which then falls to produce mild barrier dysfunction | 0% ± 3% | −20 ± 4% | +30 ± 4% | 
C[S+]([O-])c1ccc(-c2nc(-c3ccncc3)c(-c3ccc(F)cc3)[nH]2)cc1 (stereo not shown) [SB203580, reference compound] | significantly blocked |  |  |  |  | effect on HGF-elicited cortical actin ring formation / actin remodeling [4]: significantly attenuated
Thrombin |  | rapidly decreases TER values which begin to abate after 30 min | −50 ± 4% | −14 ± 4% | +30 ± 3% | 
O=c1cc(N2CCOCC2)oc2c(-c3ccccc3)cccc12 [LY294002, reference compound] |  |  |  |  |  | reduction of HGF-induced increase in TER ([2]; inhibitor pretreatment (LY294002 25 μM; Ro-31-2880 10 μM)): > 50%
